From ChEMBL document CHEMBL1177647, “Synthesis and characterization of novel phenylindoles as potential probes for imaging of β-amyloid plaques in the brain” (Bioorg Med Chem, 2010) come the findings set out here.

Broadly, the Ki is the equilibrium dissociation constant of an inhibitor or competing ligand from its target. A lower Ki goes with higher affinity.

Series [1] is described as follows: Displacement of [125I]IMPY from amyloid beta42 by gamma counting. (In a radioligand displacement assay an active substance lowers the binding of a labelled ligand.)
Series [2] relates to Brain. Briefly: In vivo binding affinity to amyloid beta 42 in Tg2576 mouse brain by neuropathological staining. Type of series: ADME, organism-based.
Series [3] relates to Brain. Description: In vivo binding affinity to amyloid beta 42 in mouse brain by neuropathological staining. The series is classed as ADME, organism-based.

`COc1ccc(-c2cc3cc(I)ccc3[nH]2)cc1` yielded a Ki in series [1] of 0.0202 µM. For the same compound, in the series on Brain [2], the outcome was Active.

As for `CN(C)c1ccc(-c2cc3cc(I)ccc3[nH]2)cc1`, in series [1], the Ki amounted to 0.00424 µM. In the series on Brain [3], the Activity result is listed as “Not Active”.
